Holding throughout (experiment): NCI-60 cell line screen, 48 h
Assay [1] deals with RXF 393 renal.
The subject of assay [2] is HT29 colon.
In assay [3] the test system is SK-MEL-2 melanoma.
The subject of assay [4] is HOP-62 NSCLC.
The test system of assay [5] is SN12C renal.
Assay [6] concerns U251 CNS.
The test system of assay [7] is RPMI-8226 leukemia.
For assay [8], the system named is KM12 colon.
Assay [9] deals with UACC-257 melanoma.
The subject of assay [10] is SNB-75 CNS.
Assay [11] deals with SNB-19 CNS.
Assay [12] relates to ACHN renal.
Assay [13] deals with PC-3 prostate.
The test system of assay [14] is K-562 leukemia.
The test system of assay [15] is DU-145 prostate.
The test system of assay [16] is MALME-3M melanoma.
Assay [17] concerns SK-OV-3 ovarian.
The test system of assay [18] is HOP-92 NSCLC.

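In this assay, cells in 96-well plates receive the compound at five concentrations for 48 hours. Endpoints are linearly interpolated between the surrounding concentrations. TGI is the concentration that stops growth completely.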

As to `N#Cc1c(=O)c2ccccc2n2c1[nH]c1ccccc12`, the TGI in assay [1], in [2], in [3], in assay [4], in assay [5] and in [6] was over 100 µM throughout. Further, the TGI in assay [7], in [8], in assay [9], in assay [10], in [11] and in assay [12] was over 100 µM throughout. Moreover, the TGI in assay [13], in assay [14] and in assay [15] was over 100 µM in each case.

For the compound `CCOC(=O)N1c2c(ccn2C)-c2ccn(C)c2N1C(=O)OCC`, the TGI was 30.1 µM in assay [2]; 38.8 µM in [3]; over 100 µM in assay [4]; 37.1 µM in assay [16]; 29.6 µM in assay [5]; 77.3 µM in assay [17]. Further, the TGI stood at 54.3 µM in assay [7]; 57.3 µM in assay [8]; 33.7 µM in [10]; 29.6 µM in [12]; 63.7 µM in assay [18]; 42.4 µM in assay [14].

Turning to `CC(=O)NC1=C(NC(C)(C)C)C(=O)c2ccccc2C1=O`, the TGI in [1] is 33.3 µM; in assay [2], 49.7 µM; in assay [3], 42.9 µM; in [4], over 100 µM; in assay [16], 33.9 µM; in assay [5], 34.8 µM. For the same compound, the TGI in [17] was over 100 µM; in assay [6], over 100 µM; in assay [7] it was 37.1 µM; in assay [8], 92.9 µM; in assay [9], 29.4 µM; in assay [10], 26.5 µM. For the same compound, the TGI is over 100 µM in assay [11], over 100 µM in assay [12], 34.6 µM in [18] and 25.2 µM in assay [14].

Consider `COc1cccc(C2c3cc4c(cc3OC(N3CCOCC3)C2C)OCO4)c1OC` (stereo not drawn), for which the TGI in assay [2] was 15.8 µM; in assay [3] it was 25.5 µM; in [4], 31.6 µM; in [5], 48.4 µM; in assay [7], 24.1 µM; in assay [8], 36.2 µM. The TGI in assay [9] stood at 48.8 µM; in [10] it was 37.2 µM; in assay [11], 24.2 µM; in assay [12] it was 70.9 µM; in assay [13], 40.6 µM; in assay [14] it was 21.1 µM. In assay [15], the TGI was determined as 28.5 µM.

Consider `COc1ccc(P2(=S)Oc3ccccc3-c3ccccc3O2)cc1`, for which the TGI in assay [3], in [4], in assay [16], in assay [6], in [8] and in assay [9] was over 100 µM throughout. In addition, the TGI in assay [10] is over 100 µM; in [11], over 100 µM; in [12] it was over 100 µM; in assay [18], 85.3 µM; in [14], over 100 µM; in [15] it was over 100 µM.

In the case of `NC(=O)c1cc2ccc(O)cc2o/c1=N/NC(=O)c1ccccc1`, the TGI in assay [1] was over 100 µM; in [2], over 100 µM; in assay [3], 91.8 µM; in [4] it was over 100 µM; in assay [16] it was over 100 µM; in assay [5], over 100 µM. In addition, the TGI in assay [17], in [6], in assay [7], in assay [8], in assay [9] and in assay [10] was over 100 µM throughout. The TGI in assay [11], in assay [12], in [13], in assay [18] and in assay [14] was over 100 µM in each case.

Turning to `Nc1nc(N)c2cc(-c3ccccc3)cnc2n1`, the TGI in assay [1] was 22.5 µM; in [2], 21 µM; in assay [3] it was over 100 µM; in assay [4], 40.9 µM; in assay [16] it was 21.7 µM; in assay [5], 29.1 µM. Also, the TGI is over 100 µM in [17]; 42 µM in assay [6]; 48.9 µM in [7]; 30.1 µM in assay [8]; 30.6 µM in assay [9]; 17.3 µM in [10]. The TGI is 38.3 µM in [11]; 26.3 µM in assay [12]; 20.6 µM in [13]; 30.1 µM in assay [18]; 17.7 µM in assay [14].

Take `Cc1ccc(/C(O)=C/c2nc3c(nc2NC24CC5CC(CC(C5)C2)C4)c(=O)oc2ccccc23)cc1`: the TGI in assay [1], in [2], in assay [3], in [4], in assay [16] and in assay [5] was over 100 µM throughout. The TGI in assay [17] is over 100 µM; in assay [6], over 100 µM; in [7], over 100 µM; in [8] it was over 100 µM; in assay [9], over 100 µM; in assay [10] it was 70.1 µM. Also, the TGI in assay [11], in [12], in assay [18] and in assay [14] was over 100 µM in each case.

With `O=C1[C@H]2ON(c3ccccc3)C(c3ccccc3)[C@H]2C(=O)N1c1ccc(Cc2ccc(N3C(=O)[C@@H]4ON(c5ccccc5)C(c5ccccc5)[C@@H]4C3=O)cc2)cc1` (stereo partly drawn), the TGI in assay [1], in [2], in assay [3], in assay [4], in [16] and in assay [5] was over 100 µM in each case. For the same compound, the TGI in [17], in assay [6], in assay [7], in assay [8], in assay [9] and in assay [10] was over 100 µM each time. For the same compound, the TGI in assay [12], in assay [18] and in [14] was over 100 µM throughout.

The record behind these values is PubChem BioAssay (NCI).
